Test results as given in patent US20220280581A1, “BENEFICIAL BACTERIA AND SECRETORY IMMUNOGLOBULIN A” (priority 2019, published 2022).

Experiments:
pooled human milk SIgA [1] = assay: Binding of SIgA to bacteria by flow cytometry; conditions: 100 μg SIgA to 1e6 cfu bacteria
[2] = system: colonocytes (Caco-2 / HT29-MTX E12 co-culture); assay: Colonocyte barrier function and immune gene expression (RT-qPCR); assay type: cell-based, human; conditions: for change of IL-8 expression when SIgA is first complexed to the bacteria / change of JAM expression when SIgA is first complexed: SIgA-complexed vs bacteria alone
Method: (§1) Mammalian cell culture binding assays: Caco-2 colonic cells were co-cultured with HT29-MTX E12 cells at a ratio of 3:1 and seeded at a density of 5×10^4 cells/well in 24-well plates, maintained as described above. On day 1 post-confluence, medium was removed, the cells washed once with PBS, and DMEM without FBS or antibiotics was added prior to binding assay. Bacteria were prepared as described above, with or without SIgA and resuspended in PBS at 1×10^7 CFU/mL. 4×10^5 CFU were added to the colonocytes and the plate was centrifuged at 600×g for 5 min to ensure bacteria association with the cells. After 2 h of incubation at 37° C. in 5% CO2, medium was removed and saved for cytokine analysis. Cells were washed once with PBS, and to one set of replicates, cells were lysed with 0.5% Triton X-100 and serial dilutions of the cell suspensions were plated on MRS and incubated anaerobically at 37° C. overnight to test viability. To a second set of replicates, TRIzol (15596018; Life Technologies) was added directly to washed cells for RNA extraction.
Mammalian cell culture RT-qPCR for gene expression: Total RNA from mammalian co-culture samples were extracted via the TRIzol method. Total RNA (1 μg) was treated with Turbo DNAse (EN0521; Thermo Fisher) to remove genomic DNA, then used for reverse transcription producing cDNA, performed according to manufacturer protocol (High Capacity Complementary DNA Reverse Transcription Kit; Applied Biosystems). Gene list and primer sequences can be found in Table 2. Real-time PCR was performed with the Quantistudio 3 qPCR thermocycler (Applied Biosystems) using SyberGreen master mix (Life Technologies). Actin and GADPH were used as house-keeping genes. Analysis was performed using Quantistudio Design and Analysis Software v.1.4.3.

[3] = BLI persistence / colonization in mice (feces); assay type: in vivo, BALBc mice
Method: Mice: 6-week old female BALBc mice were purchased from The Jackson Labs. Mice were housed in an American Association for the Accreditation of Laboratory Animal Care-accredited facility, and procedures were conducted in compliance with the University of California Institutional Animal Care and Use Committee. Mice were co-housed 5 mice per cage in the Training and Research Animal Care Services vivarium at the University of California, Davis under conventional conditions with free access to standard chow RM1P (801151, Special Diet Services, Witham, England) and sterilized tap water with or without 2′FL. Mice were acclimated for 1 week prior to treatment. Mice were euthanized by decapitation following deep anesthesia with 100 mg/kg ketamine and 10 mg/kg xylazine administered by intraperitoneal injection.
Tissue Collection: Fecal samples were collected aseptically every 2 days for BLI detection. During necropsy, segments of duodenum, ileum, and colon were sectioned. First, Peyer's patches (PP) were collected and stored in 200 μL PBS in bead-beating tubes for homogenization and plating on blue/white screening agar. Duodenum, ileum, colon and cecum contents were collected into sterile tubes for bacterial analysis.
Bacterial plating and counting: PP, luminal contents and fecal samples were subjected to bead beating for 60 s at 4 m/s using a FastPrep homogenizer and 2 mm zirconium ceramic beads. Homogenate was serially diluted and plated on LB agar with kanamycin, x-gal and IPTG (blue-white screening agar) for differentiating JS107 and SJF10 strains, or further processed for DNA extraction and RT-qPCR for quantitation of BLI. […]
Strain-Specific qPCR: BLI was detected in fecal samples and intestinal contents following DNA extraction as described in Frese et al.^15 using the following primers: BLON0915F 5′[…]3′ and BLON0915R 5′ […]3′. […]

Sal4 = assay: BLI-Sal4 association: concentration dependence and stability; assay type: binding; conditions: FIG. 6, BLI-Sal4
pooled human milk SIgA [4] = assay: Binding of SIgA to bacteria by flow cytometry
Method: Binding of sIgA to bacteria. Bacteria from Table 1 were resuspended in 0.8% saline at a concentration of 1×10^7 CFU/mL. SIgA was then added at 0, 10, 100, 500 and 1000 μg per 1×10^7 colony forming units (CFU) of bacteria and incubated at 24° C. for 30 min. Following incubation, bacteria were pelleted at 14000×g for 4 min and washed with saline twice to remove non-adherent SIgA.
Flow cytometry and immunofluorescence: To measure binding cells were fixed using 4% w/v paraformaldehyde for 30 min, washed with PBS, then incubated with 1% bovine serum albumin (BSA) blocking buffer for 1 h. Cells were stained with 1/100 dilution SYTOT™ 9 (S34854, ThermoFisher) for live cells and goat anti-human IgA conjugated to Alexa 647 fluorophore using 1/50 dilution in 1% BSA (ab96998, Abcam). For flow cytometry, all samples were acquired and analyzed on a FACScan flow cytometer (BD Biosciences, Mountain View, Calif.) using the CellQuest software program. For live/dead analyses following in vitro digestion, cells were stained with SYTOT™ 9 (1/100 dilution) for live cells and propidium iodine (1/1000 dilution) for dead cells or cells with compromised membranes.

[5] = system: Caco-2 colonic cells co-cultured with HT29-MTX E12 cells; assay: Bacterial adherence to colonocyte co-cultures; assay type: cell-based, human
Method: as §1

[6] = colonocytes, listed as B. infantis

Question: For “Bifidobacterium longum ssp. infantis ATCC 15697”, which “ability to bind to pooled human milk SIgA” value (pooled human milk SIgA [1]) is on record?
Answer: Its value is 92.4%.

Question: What about the “increase in SIgA binding when first grown on an HMO substrate” value (pooled human milk SIgA [1]; HMO-grown) of the same substance?
Answer: Its value is 4.8%.

Question: And the “change of barrier gene MUCSAC expression when SIgA is first complexed” value ([2]; colonocytes, 1000 μg SIgA per 1e7 CFU)?
Answer: Its value is “decreased”.

Question: What about the “change of IL-8 expression when SIgA is first complexed to the bacteria” value [2, 6] of the same substance?
Answer: The value was “reduces the expression”.

Question: And the “change of JAM expression when SIgA is first complexed” value [2, 6]?
Answer: The value was “increasing the expression”.

Question: What about the “change of IL-8 expression when SIgA is first complexed to the bacteria” value ([2]; colonocytes, listed as BLI) of the same substance?
Answer: Its value is “increased”.

Question: What about the “change of JAM expression when SIgA is first complexed” value ([2]; colonocytes, listed as BLI) of the same substance?
Answer: Its value is “decreased”.

Question: What about the “change of Claudin 1 expression with SIgA association” value ([2]; mammalian colonocytes) of the same substance?
Answer: Its value is “increasing the expression”.

Question: And the “change of Occludin expression with SIgA association” value ([2]; mammalian colonocytes)?
Answer: The value was “increasing the expression”.

Question: And the “increase of colonization in the gastrointestinal tract with SIgA association” value ([3]; 5-6 week old BALBc mice fed water)?
Answer: Its value is 4 log-scale.

Question: And the “increase of colonization in the gastrointestinal tract with SIgA association” value ([3]; mice supplemented with an HMO (10% 2′ fucosyllactose))?
Answer: Its value is 5 log-scale.

Question: And the “higher concentration in feces when pre-incubated with milk SIgA” value ([3]; one day post oral administration, vs not pre-incubated)?
Answer: The value was 10 ×.

Question: And the “SIgA association with BLI: concentration dependence” value (Sal4)?
Answer: Its value is “concentration dependent”.

Question: And the “SIgA association with BLI: stability over time” value (Sal4; 6 hour)?
Answer: Its value is “stable over a 6 hour time interval”.

Question: What about the “binding of a heterogeneous pool of SIgA” value (pooled human milk SIgA [4]; 0-1000 μg SIgA per 1e7 CFU) of the same substance?
Answer: Its value is “concentration dependent”.

Question: And the “association to SIgA when first grown on 2′FL” value (pooled human milk SIgA [4]; 1% 2′FL in the final media)?
Answer: The value was “increased association to SIgA”.

Question: What about the “increased adherence to the co-culture with the addition of SIgA” value ([5]; first grown on LNnT) of the same substance?
Answer: The value was 7.5e5 CFU.

Question: What about the “increased adherence to the co-culture with the addition of SIgA” value ([5]; first grown on glucose) of the same substance?
Answer: The value was 3.5e6 CFU.

Question: What about the “slope of regression plot of adherent bacteria with SIgA association” value ([5]; lactose-grown) of the same substance?
Answer: Its value is 4.6e3 adherent CFU per % population associated with SIgA.

Question: What about the “Slope (adherent CFU/% SIgA association)” value ([5]; substrate 2'FL) of the same substance?
Answer: Its value is 1552.0 adherent CFU/% SIgA associatio.

Question: What about the “Slope (adherent CFU/% SIgA association)” value ([5]; substrate LNnT) of the same substance?
Answer: The value was 3606.0 adherent CFU/% SIgA associatio.

Question: And the “Slope (adherent CFU/% SIgA association)” value ([5]; substrate all (no lac))?
Answer: The value was 4887.0 adherent CFU/% SIgA associatio.

Question: And the “Slope (adherent CFU/% SIgA association)” value ([5]; substrate glucose)?
Answer: The value was 6882.0 adherent CFU/% SIgA associatio.

Question: And the “Slope (adherent CFU/% SIgA association)” value ([5]; substrate lactose)?
Answer: Its value is −2230.0 adherent CFU/% SIgA associatio.
